# Patent US6642365B1, “Anti-(retro)viral conjugates of saccharides and acetamidino or guanidino compounds” (Yeda Research and Development Co. Ltd., priority 2001, dated 2003)
# pEC50, pIC50, pKd: −log10 of the molar value. Entries after “also recorded” stand apart in the source; their conditions may differ.
# Assays:
# [1] = test system: equine infectious anemia virus (EIAV); assay: Antiviral activity in EIAV-infected ED fibroblasts; assay type: cell-based; conditions: 100-250 μM
# Method: Both equine dermal fibroblasts (ED) and Equine Infectious Anemia Virus (EIAV), Wyoming isolate (Malmquist et al., 1973) were gifts from Profs. A. Yaniv and A. Gazit, from the Sackler Medical School of the Tel-Aviv University, Israel. ED cells were plated on plastic 6-well tissue culture plates (Nunclone) at density of […] per well in 2 ml of DMEM/10% FCS (fetal calf serum). The medium was removed after 12-20 hours and the cells were inoculated for 2 hours with 0.5 ml DMEM/10% FCS containing 5×10^6 pfu (plaque forming units) of EIAV and 10 μg/ml of polybrene (hexadimetrine bromide, Sigma) (Carpenter and Chesebro, 1989). Following the incubation, another 2.5 ml of DMEM/10% FCS was added to each well. […] Every […], 1.2 ml samples of the medium were collected and replaced with same amount of medium, containing radioactive uridine and the tested. The samples were clarified from cell debris by spinning at 12000 rpm for 5 minutes on the Eppendorf centrifuge. Viral particles from the clarified supernatants were collected by ultracentrifugation at 75000 rpm, 4° C. on the Beckman TL 100 centrifuge using TLA 100.2 rotor (Cheevers et al., 1977). The supernatants were carefully discarded and the pellet was resuspended in 200 μl of 1% SDS/5% Tritone X-100, mixed with 1 ml Ultima Gold scintillation liquid (Packard) and counted on LS 1701 Bruker scintillation counter. Typical duration of the experiment was 15 days; EIAV growth curves in the presence of various concentrations of the conjugates in the medium were obtained. Development of the cytopathic effect (cpe) in the infected ED cells was monitored by light microscopy.
# Equine infectious anemia virus (EIAV) of Wyoming strain is adapted to grow in equine dermal fibroblasts (ED), without damaging them with a titer of 1 μfu per cell (Malmquist virus). […] In the absence of inhibitors, EIAV proliferated in the ED cells reaching a plato 9-12 days after infection (FIG. 8). […] Development of cpe started 10-12 days after infection, reaching a maximum on days 15-17, followed by rapid cell death and exfoliation from the plastic bottom of the well.
# TAR RNA [2] = assay: RNase A footprinting of TAR RNA; assay type: binding, HIV-1
# Method: In a typical experiment 10 μl of 5 mM cacodylate buffer pH 6.5, containing 25 mM KCl and 50-100 ng 5′ ^32P-labeled TAR RNA (approximately 0.5-1 μM) were incubated with 200 pM RNase A (Sigma) at room temperature for 10 minutes in the presence of Tat R52 and the conjugates of the invention at various concentrations. In the competition experiments, the mixture was supplemented with 0.5 μg yeast tRNA (Sigma). After the incubation, 10 μl of formamide/bromphenol blue loading buffer was added to the samples. The samples were heated to 80° C. for 2 min and were resolved by electrophoresis on 40 cm×0.8 mm 20% polyacrylamide denaturing gel (7M urea) for 3 hours at 55° C. The results were visualized by a phosphoimager as described above and quantitated using ImageQuant software.
# TAR RNA and RNase A concentrations were established by co-titration. To produce a “single-hit” kinetics conditions, 1 μM TAR versus 200 pM RNase A were selected. Tat R52 and AAC concentrations were determined by titration. […] RNase A cleaved TAR RNA in an uneven manner (FIG. 4A., lane 2). The most susceptible regions for cleavage were the single-stranded loop, nucleotides U31-G34 as well as C24 and U25 of the bulge. Strong cleavage was also observed at G21-G41 and A20-U42 pairs (lower stem). Binding of R52 (2-4 μM) caused a weakening of the bands in the upper stem region, (G26-C39, A27-C38, as well as U40) (FIG. 4A., lanes 3, 4). At 4 μM R52, the cleavage at G34 (loop) was enhanced, as well as a certain enhancement of bands A20, G21, U23 and U25 was observed. Remarkably, the band corresponding to the R52-TAR complex still was observed on the gels even after electrophoresis under strongly denaturing conditions. In the presence of R4K (10-20 μM), the upper stem (G26-C29), the lower stem and the bulge (G21-U23, partially C24 and U25) were protected as well as C38, C39 and U40. Cleavage at C19 and A20 of the lower stem and C30, G33 and G34 of the loop was enhanced by 10 μM R4K, whereas with 20 μM R4K the protection of C30, G34 and A20-G21 was observed (FIG. 4A., lanes 5, 6). […] Cleavages at C19-A20 in the lower stem as well as at G30 and G34 in the loop were observed (FIG. 4A., lanes 7, 8). In the presence of GB4K (20 μM) no significant protection was observed.
# TAR RNA [3] = assay: Gel-shift binding to TAR RNA; parameters: species or system HIV-1; conditions: up to 50 μM
# Method: The model Tat peptide (R52: […]) was prepared by the Weizmann Institute Chemical Services and was purified by reverse phase HPLC (C-18) (Lapidot et al., 1995). […] The RNA was transcriptionally labeled with α-^32P UTP, purified on a 12% polyacrylamide/7M urea gel (19:1 acrylamide:bis-acrylamide) and was eluted from the gel by 0.5M ammonium acetate, 10 mM magnesium acetate, 1 mM EDTA and 0.1% SDS. The sample was subjected to phenol extraction and the RNA was precipitated from 70% ethanol. Purified RNA was dissolved in diethyl pyrocarbonate-treated water (DEPC water), its concentration was determined by UV absorption at 260 nm and the specific radioactivity was determined by scintillation counting on a LS 1701 “Bruker” counter.
# To study the affinity of the test compounds to TAR, gel-shift and gel-shift inhibition experiments were performed. The binding reaction mixtures (20 μl) contained ^32P-labeled TAR (18-44) RNA oligonucleotide (3-6 nM) and Tat R52 peptide (35-75 nM) in a binding buffer (10 mM Tris-HCl pH 7.5, 70 mM NaCl, 0.2 mM EDTA and 5% glycerol). The reaction mixtures were incubated for 10 minutes on ice and resolved by electrophoresis on a 10% non-denaturing polyacrylamide gel (40:1 acrylamide:bis-acrylamide) at 200V, for 3 h at 4° C. Gels were dried and visualized by autoradiography. Quantitations were obtained by optical densitometry of films. Alternatively, results were visualized by exposing the wet gels to Fuji phosphoimager plates, which were read on a “Storm 820” (Molecular Dynamics) phosphoimager. […]
# Binding of aminoglycoside-arginine conjugates (AAC) to TAR RNA was measured by adding varying concentrations of each conjugate to reaction mixtures (20 μl) which contained 12 nM ^32P-labeled TAR RNA. The reactions were analyzed as described above.
# Tat-TAR complex = conditions: cited from earlier work
# HIV-1 NL4-3 [4] = assay: Virus-binding assay, p24 antigen bound to MT-4 cells; assay type: cell-based
# Method: MT4 cells (5×10^5) were incubated with supernatant containing 1×10^5 pg of p24 antigen of wild type HIV-1 in the presence of different concentrations of the test compound. One hour after infection, cells were washed 3 times with PBS and p24 antigen bound to the cells was determined by a commercial ELISA test (Coulter, Spain).
# HIV-1 2D = assay type: cell-based
# Method: (§1) T-tropic HIV-1 laboratory strains IIIb, 2D as well as AZT-resistant and UC781-resistant strains were utilized in this study, along with clinical isolate (clade C). HIV-1 clinical isolate, resistant to AZT is a generous gift from Dr. Mark A. Wainberg, McGill AIDS Center, McGill University, Montreal, Canada.
# (§2) MT-2 or MT-4 cells were cultured in RPMI 1640 supplemented with 10% fetal calf serum (FCS), 0.2 mM glutamine and penicilline/streptomycin/nistatin mixture. The cells were propagated in 96-well tissue culture plates at the density of 5×10^4 cells per well. Peripheral mononuclear blood cells (PMBC) were separated from whole blood samples by centrifugation in Ficoll gradient for 10 min at 400 g. PMBC were cultured in the same medium in 24-well tissue culture plates at the density of about 10^6 cells per well.
# [5] = test system: MT-2 cells as well as PMBC lines ETH and IS; conditions: ratio CC50/EC50
# Method: (§3) The cells were infected by incubation with different titers of the HIV-1 strains for 2 hrs at 37° C. in the presence or absence of the AAC of the invention. Then the cells were washed from the virus by centrifugation at 400 g and the supernatants were discarded. The cells were resuspended in culture medium, supplemented with different concentrations of the test compounds. The cells were allowed to proliferate for 5 days, the number of viable cells was quantified by a tetrazolium-based colorimetric method (CellTiter 96® AQueous One solution Cell Proliferation Assay, Promega). Anti-HIV activity in P4-CCR5 MAGI cells was done as follows: cells (1×10^5/ml) were infected with 10 ng/ml of p24 antigen of HIV-1 Ba-L in the presence of varying concentrations of the test compound. 24 hours post infection, cells were washed twice with PBS and resuspended in the medium containing the appropriate drug concentration. Five days after infection the cells were washed with PBS and evaluated for β-galactosidase activity.
# CXCR4 [6] = biological target: T1, CXCR4 (Homo sapiens, UniProt P61073); assay: Inhibition of anti-CXCR4 mAb (12G5) binding, flow cytometry, SUP-T1 cells; parameters: endogenous in cells
# Method: (§4) Measurement of chemokine receptors CXCR4, CCR5 and the CD4 receptor on phytohemagglutinin (PHA)-activated PBMC was performed by flow cytometry analysis. Briefly, 0.5×10^6 cells were washed in ice-cold phosphate-buffered saline (PBS) and incubated for 30 minutes at 4÷C. with fluorescent labelled mAb 12G5 and 2D7 and Leu3a (Becton Dickinson, San Jose, Calif.) or with isotype control mAbs in the presence or absence of the test compound. Then, the cells were washed with ice-cold PBS and were fixed in PBS containing 1% formaldehyde. For each sample, 10,000 events were analysed in a FACScalibur™ system (Becton Dickinson). Data were acquired and analysed with CellQuest™ software (Becton Dickinson).
# CXCR4 [7] = biological target: T1, CXCR4; assay: Inhibition of anti-CXCR4 mAb (12G5) binding, flow cytometry, PHA-activated PBMC; parameters: endogenous in cells
# Method: as §4
# [8] = test system: HIV-1 clinical isolate (clade C); assay: Anti-HIV assay, syncytium formation and tetrazolium colorimetric assay; assay type: cell-based
# Method: as §1, §2
# HIV-1 IIIB = assay: as above; assay type: cell-based; conditions: range over IIIb, 2D, AZT resistant, UC781 resistant and clade C HIV-1
# Method: as §1, §2
# [9] = test system: HIV-1 NL4-3 AMD3100-resistant; assay type: cell-based
# HIV-1 NL4-3 [10] = assay: Anti-HIV assay, MTT, MT-4 cells; assay type: cell-based
# Method: The HIV-1 strains NL4-3 and Ba-L and the CD4^+lymphocytic cell lines SUP-T1, MT-4 and MT-2 and P4-CCR5 MAGI cells were obtained from the MRC AIDS reagent program or the NIH, AIDS Research and Reference Reagent Program.
# as §3
# HIV Rev-RRE interaction = conditions: at 100 μM; cited from earlier work
# T1 sequence (P61073 whole entry): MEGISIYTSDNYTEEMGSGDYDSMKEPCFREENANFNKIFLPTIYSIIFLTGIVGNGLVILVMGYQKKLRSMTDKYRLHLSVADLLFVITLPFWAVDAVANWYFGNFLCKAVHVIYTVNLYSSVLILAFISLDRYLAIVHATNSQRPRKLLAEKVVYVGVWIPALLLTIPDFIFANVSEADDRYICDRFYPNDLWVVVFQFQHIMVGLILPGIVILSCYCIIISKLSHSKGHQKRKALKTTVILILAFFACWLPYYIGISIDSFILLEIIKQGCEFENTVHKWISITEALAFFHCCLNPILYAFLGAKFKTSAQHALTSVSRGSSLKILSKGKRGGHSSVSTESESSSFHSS
compound,measurement,setting,value
"N=C(N)NCCCC(=O)NC[C@H]1O[C@H](O[C@H]2[C@H](O)[C@@H](O[C@H]3O[C@H](CO)[C@@H](O)[C@H](NC(=O)CCCNC(=N)N)[C@H]3O)[C@H](NC(=O)CCCNC(=N)N)C[C@@H]2NC(=O)CCCNC(=N)N)[C@H](O)[C@@H](O)[C@@H]1O [GB4K, Tetra-γ-(N-guanidino)butyramido-kanamycin A conjugate]",effect on the viral growth,[1],did not show any effect
same,binding to TAR RNA in protection experiments,TAR RNA [2]; at 40 μM,did not exhibit binding
same,"TAR RNA binding, overall assessment",TAR RNA [2]; footprinting studies,very weak TAR RNA binder
same,binding to TAR RNA in gel-shift experiments,TAR RNA [3],did not exhibit binding
"NC[C@@H]1O[C@H](O[C@H]2[C@@H](O)[C@H](O[C@@H]3[C@@H](O)[C@H](N)C[C@H](N)[C@H]3O[C@H]3O[C@H](CN)[C@@H](O)[C@H](O)[C@H]3N)O[C@@H]2CO)[C@H](N)[C@@H](O)[C@@H]1O [Neomycin B, reference compound]",concentration range of inhibitory effect on Tat binding to TAR,Tat-TAR complex; in vitro,1 to 100 µM
"CO[C@@H]1O[C@H](CC(N)=O)C(O)[C@H](O)[C@@H]1O (stereo partly drawn) [compound 8, Methyl 6-deoxy-α-D-mannoheptopyranuronic acid amide]",melting point,,177 °C
Dextran sulfate [reference compound],binding of HIV-1 NL4-3 to MT-4 cells,"HIV-1 NL4-3 [4]; 1 hour at 37° C., dose dependent",active
Hexa/penta-argininamido-neomycin B conjugate [NeoR],pEC50,HIV-1 2D,5.40
same,antiviral effect in the presence of AZT,HIV-1 2D,additive
same,TI50,[5],60-85
same,affinity for CXCR4,CXCR4 [6]; inhibition of 12G5 binding to SUP-T1 cells or PMBC,high affinity
same,binding of 12G5 mAb to PHA-activated PBMC,CXCR4 [7]; 5 μM,suppressed significantly more than in the presence of 5 μM R3G; also recorded: suppressed
same,pIC50,CXCR4 [7]; read-out: IC50-12G5 PMBC,5.62
same,inhibition of virus growth,"[8]; MT-2 cells infected in presence of 20 μM R3G or 10 μM NeoR, then 3 days without AAC",60%
same,pEC50,[8]; average of two independent experiments in duplicates,5.52
same,pEC50,HIV-1 IIIB,5.40 to 5.52
SDF-1α,pEC50,"[9]; MTT assay, read-out: EC50 HIV-1 AMD 3100res",< 6.00
same,cross-resistance of NL4-3 AMD3100-resistant virus,[9]; relative to NL4-3,> 25 fold
same,pEC50,HIV-1 NL4-3 [10],7.40
same,binding of HIV-1 to MT-4 cells,HIV-1 NL4-3 [4]; 0.5 μg/ml,did not inhibit the binding
same,pIC50,CXCR4 [6],7.89
gentamicin,inhibition of Rev-RRE interaction,HIV Rev-RRE interaction,do not display any inhibition
native Tat: HIV trans-activator of transcription protein,pKd,"Tat-TAR complex; comparison value, read-out: Kd of the native Tat-TAR complex",7.92 to 8.22
